Like-named read-outs stand apart in the source and are kept apart here.
Legend:
SU-DHL-6 cells = assay: SU-DHL-6 cell proliferation test; assay type: cell-based, human; conditions: incubated for 14 days
Description: SU-DHL-6 cells are human B-cell lymphoma cell lines purchased from ATCC and cultured under the following conditions: RPMI-1640+10% FBS+1% double antibody in a 37° C., 5% CO2 incubator. The cells were plated in a 12-well plate, with a cell concentration of 1×10^5 cells/mL. After the cells were plated, the compounds at different concentrations were added and cultured in a 37° C., 5% CO2 incubator. The cells were counted every 3-4 days (Countstar automated cell counter), centrifuged to remove the supernatant, re-diluted to 1×10^5 cells/mL and plated, and then the compounds at different concentrations were further added. After the mixture was incubated for 14 days and the cells were counted, the test was terminated, and the IC50 values were calculated by using the Origen9.2 software.

EZH2 = EZH2 (Homo sapiens (Human), UniProt Q15910); assay: Test method for EZH2 enzyme activity; assay type: biochemical; conditions: H3K27(21-44) and [3H]-SAM
Chain of EZH2 (Q15910 other isoform, or with tags, fused parts or gaps isoform Q15910-2): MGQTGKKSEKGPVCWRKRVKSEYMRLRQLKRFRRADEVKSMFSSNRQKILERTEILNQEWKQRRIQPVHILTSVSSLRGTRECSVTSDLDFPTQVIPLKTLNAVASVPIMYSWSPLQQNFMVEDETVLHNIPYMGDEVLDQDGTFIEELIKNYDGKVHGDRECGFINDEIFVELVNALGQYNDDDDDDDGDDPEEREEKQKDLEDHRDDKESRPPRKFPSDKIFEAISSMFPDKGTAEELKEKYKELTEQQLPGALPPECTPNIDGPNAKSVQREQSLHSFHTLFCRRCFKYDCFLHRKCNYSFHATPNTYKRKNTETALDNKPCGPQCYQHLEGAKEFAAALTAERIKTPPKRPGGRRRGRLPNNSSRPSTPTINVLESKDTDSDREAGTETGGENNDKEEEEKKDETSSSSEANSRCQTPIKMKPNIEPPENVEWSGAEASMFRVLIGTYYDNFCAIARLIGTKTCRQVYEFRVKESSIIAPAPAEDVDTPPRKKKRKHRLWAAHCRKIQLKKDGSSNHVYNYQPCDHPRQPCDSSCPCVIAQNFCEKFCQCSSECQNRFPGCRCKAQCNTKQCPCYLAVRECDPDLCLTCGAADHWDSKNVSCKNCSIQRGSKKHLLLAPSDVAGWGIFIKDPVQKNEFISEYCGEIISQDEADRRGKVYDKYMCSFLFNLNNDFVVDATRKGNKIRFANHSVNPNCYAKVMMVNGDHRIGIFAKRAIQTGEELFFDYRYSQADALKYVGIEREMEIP
Chain of EZH2 (O75530 2-441 partner): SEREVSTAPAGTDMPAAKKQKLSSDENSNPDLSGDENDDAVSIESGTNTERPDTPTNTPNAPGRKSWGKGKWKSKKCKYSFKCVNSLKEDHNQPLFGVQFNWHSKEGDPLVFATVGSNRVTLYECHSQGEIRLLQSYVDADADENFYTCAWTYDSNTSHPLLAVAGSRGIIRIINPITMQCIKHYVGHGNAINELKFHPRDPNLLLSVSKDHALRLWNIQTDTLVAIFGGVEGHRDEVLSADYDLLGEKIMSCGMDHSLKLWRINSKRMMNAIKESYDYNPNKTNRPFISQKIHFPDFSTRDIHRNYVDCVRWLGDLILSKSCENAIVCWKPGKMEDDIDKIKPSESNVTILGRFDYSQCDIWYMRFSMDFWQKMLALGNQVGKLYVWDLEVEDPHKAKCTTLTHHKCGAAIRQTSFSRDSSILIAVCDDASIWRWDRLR
Chain of EZH2 (Q15022 2-739 partner): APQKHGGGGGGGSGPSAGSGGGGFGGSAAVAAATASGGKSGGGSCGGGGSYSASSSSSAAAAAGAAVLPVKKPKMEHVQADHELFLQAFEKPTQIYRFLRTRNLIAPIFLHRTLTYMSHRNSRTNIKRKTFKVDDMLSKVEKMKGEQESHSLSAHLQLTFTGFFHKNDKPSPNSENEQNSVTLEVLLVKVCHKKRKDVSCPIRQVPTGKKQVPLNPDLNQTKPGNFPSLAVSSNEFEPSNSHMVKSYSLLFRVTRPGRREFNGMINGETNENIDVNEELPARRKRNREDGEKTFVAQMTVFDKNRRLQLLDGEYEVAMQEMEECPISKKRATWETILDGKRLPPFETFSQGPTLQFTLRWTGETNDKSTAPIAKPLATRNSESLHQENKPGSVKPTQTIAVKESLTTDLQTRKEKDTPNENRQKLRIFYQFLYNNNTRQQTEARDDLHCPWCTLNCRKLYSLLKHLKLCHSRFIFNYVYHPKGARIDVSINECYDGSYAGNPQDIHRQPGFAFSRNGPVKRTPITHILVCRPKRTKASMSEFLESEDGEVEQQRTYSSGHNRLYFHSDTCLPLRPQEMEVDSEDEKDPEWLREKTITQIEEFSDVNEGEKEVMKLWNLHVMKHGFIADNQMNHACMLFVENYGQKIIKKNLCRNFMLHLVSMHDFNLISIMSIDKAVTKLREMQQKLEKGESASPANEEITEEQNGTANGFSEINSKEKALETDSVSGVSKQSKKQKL
Chain of EZH2 (Q09028 2-425 partner): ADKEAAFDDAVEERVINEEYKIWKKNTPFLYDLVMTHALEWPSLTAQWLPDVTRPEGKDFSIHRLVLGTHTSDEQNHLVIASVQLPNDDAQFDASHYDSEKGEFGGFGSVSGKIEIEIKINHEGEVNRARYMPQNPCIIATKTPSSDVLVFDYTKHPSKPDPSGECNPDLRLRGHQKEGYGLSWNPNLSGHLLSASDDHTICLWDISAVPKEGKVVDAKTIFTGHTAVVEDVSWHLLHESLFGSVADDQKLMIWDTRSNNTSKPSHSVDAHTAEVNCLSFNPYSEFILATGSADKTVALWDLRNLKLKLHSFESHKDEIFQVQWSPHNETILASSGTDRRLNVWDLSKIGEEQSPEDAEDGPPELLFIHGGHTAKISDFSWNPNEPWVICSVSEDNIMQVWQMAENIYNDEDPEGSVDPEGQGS
Chain of EZH2 (Q6ZN18 whole entry partner): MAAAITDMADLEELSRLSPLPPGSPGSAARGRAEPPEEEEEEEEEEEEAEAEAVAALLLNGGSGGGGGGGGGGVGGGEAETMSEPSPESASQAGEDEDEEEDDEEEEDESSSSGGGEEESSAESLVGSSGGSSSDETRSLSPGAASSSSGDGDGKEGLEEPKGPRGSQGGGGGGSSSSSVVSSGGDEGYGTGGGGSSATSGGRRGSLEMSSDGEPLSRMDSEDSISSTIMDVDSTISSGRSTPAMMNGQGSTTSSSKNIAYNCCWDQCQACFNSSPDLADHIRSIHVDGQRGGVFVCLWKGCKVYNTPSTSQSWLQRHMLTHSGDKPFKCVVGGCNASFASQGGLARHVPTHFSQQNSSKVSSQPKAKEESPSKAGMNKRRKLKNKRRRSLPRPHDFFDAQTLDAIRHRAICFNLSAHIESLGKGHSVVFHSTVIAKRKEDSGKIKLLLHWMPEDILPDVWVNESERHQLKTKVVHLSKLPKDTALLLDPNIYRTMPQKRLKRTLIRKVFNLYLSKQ
How it was run: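 EZH2 (3 nM final) preincubated 15 min with compound in Tris-HCl pH 9.0 buffer, then H3K27(21-44) peptide and [3H]-SAM added (mixture at 200 nM and 100 nM) for 60 min at room temperature. Reaction quenched with cold SAM; flashplate scintillation read, inhibition normalized to controls and IC50 fitted.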

[1] = Pharmacokinetic experiment in mice (intravenous 5 mg/kg or intragastric 30 mg/kg); assay type: in vivo; conditions: for AUC: read-out: AUC; for C0: read-out: C0; for bioavailability: PO 30 mg/kg vs IV 5 mg/kg
Description: The administration was performed according to table 5.
The concentrations of the compounds in EDTA-K2 anticoagulant plasma were determined by the LC-MS/MS method. The linear range of the standard curve of the compounds is 2-2000 ng/mL. After subjected to precipitating proteins with acetonitrile, the samples were analyzed by LC-MS/MS. The standard curve was subjected to a regression calculation using the weighted least square method (W=1/X^2), and quantified by calculating the ratio of test compound peak area to internal standard peak area.
• (1) except to the blank sample, 400 μL of internal standard working solution (Verapamil internal standard concentration in precipitant acetonitrile is 10.0 ng/mL) was added to a 1.5 mL centrifuge tube containing 30 μL of standard curve samples and quality control samples; • 200 μL of internal standard working solution (Verapamil internal standard concentration in precipitant acetonitrile is 10.0 ng/mL) was added to a 1.5 mL centrifuge tube containing 15 μL of unknown samples; • and 400 μL of acetonitrile was added to the blank sample; • (2) the mixture was mixed evenly for about 1 min in a vortex mixer; • (3) centrifugation was carried out at 10000 rpm at 4C for 10 mi; • (4) 175 μL of the supernatant was transferred to a new 96-well polypropylene plate, and then the plate was sealed and placed in a 10° C. sample tray for injection.

[2] = male, ICR, mouse, plasma, iv, 5 mg/kg, IV 5 mg/kg
[3] = male, ICR, mouse, plasma, po, 30 mg/kg, PO 30 mg/kg
[4] = male, ICR, mouse, plasma, po, 30 mg/kg

IC50 (EZH2) | IC50 (SU-DHL-6 cells; Homo sapiens, SU-DHL-6, 336 h) | SMILES | further results
0.44 nM |  | CSc1cc(C)[nH]c(=O)c1CNC(=O)c1cc(Cl)c2c(c1C)OC(C)([C@H]1CC[C@H](N[C@H]3C[C@@H](F)C3)CC1)O2 (single isomer, unassigned) [Compound 41, isomer 2, 7-chloro-2-(4-((cis-3-fluorocyclobutyl)amino)cyclohexyl)-2,4-dimethyl-N-((6-methyl-4-(methylthio)-2-oxo-1,2-dihydropyridin-3-yl)methyl)benzo[d][1,3]dioxole-5-carboxamide] | IC50 (SU-DHL-6 cells): 22 nM
0.48 nM | 24 nM | [2H]C([2H])(NC(=O)c1cc(Cl)c2c(c1C)OC(C)([C@H]1CC[C@@H](NC3CC(F)(F)C3)CC1)O2)c1c(SC)cc(C)[nH]c1=O (single isomer, unassigned) [Compound 44, isomer 1, 7-chloro-2-(4-((3,3-difluorocyclobutyl)amino)cyclohexyl)-2,4-dimethyl-N-((6-methyl-4-(methylthio)-2-oxo-1,2-dihydropyridin-3-yl)methyl-d2)benzo[d][1,3]dioxole-5-carboxamide] | T1/2 ([1]; ICR mice, IV 5 mg/kg, listed as Compound 44, Isomer 1): 0.427 h; Cmax ([1]; ICR mice, PO 30 mg/kg, listed as Compound 44, Isomer 1): 971 ng/mL; AUC [1, 2]: 574 ng·h/mL; C0 [1, 2]: 2340 ng/mL; half-life [1, 3]: 1.27 h; bioavailability [1, 4]: 44.3%; AUC [1, 3]: 1530 ng·h/mL
0.57 nM | 10 nM | [2H]C([2H])(NC(=O)c1cc(Cl)c2c(c1C)OC(C)(C1CCC(NC3COC3)CC1)O2)c1c(SC)cc(C)[nH]c1=O (single isomer, unassigned) [Compound 59, isomer 1, 7-chloro-2,4-dimethyl-N-((6-methyl-4-(methylthio)-2-oxo-1,2-dihydropyridin-3-yl)methyl-d2)-2-(4-(oxetan-3-ylamino)cyclohexyl)benzo[d][1,3]dioxole-5-carboxamide] | 
0.18 nM |  | [2H]C([2H])(NC(=O)c1cc(Cl)c2c(c1C)OC(C)([C@H]1CC[C@@H](N3CC4COCC4C3)CC1)O2)c1c(SC)cc(C)[nH]c1=O (single isomer, unassigned) [Compound 60, isomer 1, 7-chloro-2,4-dimethyl-N-((6-methyl-4-(methylthio)-2-oxo-1,2-dihydropyridin-3-yl)methyl-d2)-2-(4-(tetrahydro-1H-furo[3,4-c]pyrrol-5(3H)-yl)cyclohexyl)benzo[d][1,3]dioxole-5-carboxamide] | IC50 (SU-DHL-6 cells): 58.6 nM
0.34 nM |  | [2H]C([2H])(NC(=O)c1cc(Cl)c2c(c1C)OC(C)([C@H]1CC[C@@H](N3CC4COCC4C3)CC1)O2)c1c(SC)cc(C)[nH]c1=O (single isomer, unassigned) [Compound 60, isomer 2, 7-chloro-2,4-dimethyl-N-((6-methyl-4-(methylthio)-2-oxo-1,2-dihydropyridin-3-yl)methyl-d2)-2-(4-(tetrahydro-1H-furo[3,4-c]pyrrol-5(3H)-yl)cyclohexyl)benzo[d][1,3]dioxole-5-carboxamide] | IC50 (SU-DHL-6 cells): 7.12 nM
0.34 nM |  | CSc1cc(C)[nH]c(=O)c1CNC(=O)c1cc(Cl)c2c(c1C)OC(C)([C@H]1CC[C@H](C(=O)N3CC(F)(F)C3)CC1)O2 (single isomer, unassigned; isomer 1) [Compound 47, isomer 1, 7-chloro-2-(4-(3,3-difluoroazetidine-1-carbonyl)cyclohexyl)-2,4-dimethyl-N-(di-deuterated(6-methyl-4-(methylthio)-2-oxo-1,2-dihydropyridin-3-yl)di-deuterated-methyl)benzo[d][1,3]dioxole-5-carboxamide] | IC50 (SU-DHL-6 cells): 26.3 nM
0.52 nM | 63.2 nM | CNS(=O)(=O)N1CCC(C2(C)Oc3c(Cl)cc(C(=O)NCc4c(SC)cc(C)[nH]c4=O)c(C)c3O2)CC1 (stereo not drawn) [Compound 26, 7-chloro-2,4-dimethyl-N-((6-methyl-4-(methylthio)-2-oxo-1,2-dihydropyridin-3-yl)methyl)-2-(1-(N-methylsulfamoyl)piperidin-4-yl)benzo[d][1,3]dioxole-5-carboxamide] | 
0.52 nM | 93.7 nM | [2H]C([2H])(NC(=O)c1cc(Cl)c2c(c1C)OC(C)(C1CCN(CC3CC3)CC1)O2)c1c(SC)cc(C)[nH]c1=O (stereo not drawn) [Compound 27, 7-chloro-2-(1-(cyclopropylmethyl)piperidin-4-yl)-2,4-dimethyl-N-((6-methyl-4-(methylthio)-2-oxo-1,2-dihydropyridin-3-yl)methyl-d2)benzo[d][1,3]dioxole-5-carboxamide] | half-life [1, 2]: 1.42 h; AUC [1, 2]: 839 ng·h/mL; C0 [1, 2]: 1970 ng/mL; half-life [1, 3]: 0.934 h; bioavailability [1, 4]: 52.7%; AUC [1, 3]: 2650 ng·h/mL; Cmax ([1]; male, ICR, mouse, plasma, po, 30 mg/kg, PO 30 mg/kg, read-out: Cmax): 865 ng/mL; Tmax ([1]; male, ICR, mouse, plasma, po, 30 mg/kg, PO 30 mg/kg, read-out: Tmax): 2 h
0.44 nM | 77.9 nM | COC(=O)N1CCC(C2(C)Oc3c(Cl)cc(C(=O)NCc4c(SC)cc(C)[nH]c4=O)c(C)c3O2)CC1 (stereo not drawn) [Compound 29, methyl-4-(7-chloro-2,4-dimethyl-5-(((6-methyl-4-(methylthio)-2-oxo-1,2-dihydropyridin-3-yl)methyl)carbamoyl)benzo[d][1,3]dioxol-2-yl)piperidine-1-carboxylate] | 
0.66 nM | 22.6 nM | CSc1cc(C)[nH]c(=O)c1CNC(=O)c1cc(Cl)c2c(c1C)OC(C)(C1CCN(CC3(C#N)CC3)CC1)O2 (stereo not drawn) [Compound 30, 7-chloro-2-(1-((1-cyanocyclopropyl)methyl)piperidin-4-yl)-2,4-dimethyl-N-((6-methyl-4-(methylthio)-2-oxo-1,2-dihydropyridin-3-yl)methyl)benzo[d][1,3]dioxole-5-carboxamide] | 
0.52 nM | 68 nM | CSc1cc(C)[nH]c(=O)c1CNC(=O)c1cc(Cl)c2c(c1C)OC(C)(C1CCN(CC3CC3(F)F)CC1)O2 (stereo not drawn) [Compound 31, 7-chloro-2-(1-((2,2-difluorocyclopropyl)methyl)piperidin-4-yl)-2,4-dimethyl-N-((6-methyl-4-(methylthio)-2-oxo-1,2-dihydropyridin-3-yl)methyl)benzo[d][1,3]dioxole-5-carboxamide] | 
0.44 nM | 32.1 nM | CSc1cc(C)[nH]c(=O)c1CNC(=O)c1cc(Cl)c2c(c1C)OC(C)(C1CCN(CC3CCC3)CC1)O2 (stereo not drawn) [Compound 37, 7-chloro-2-(1-(cyclobutylmethyl)piperidin-4-yl)-2,4-dimethyl-N-((6-methyl-4-(methylthio)-2-oxo-1,2-dihydropyridin-3-yl)methyl)benzo[d][1,3]dioxole-5-carboxamide] | 
0.7 nM | 14.1 nM | CSc1cc(C)[nH]c(=O)c1CNC(=O)c1cc(Cl)c2c(c1C)OC(C)(C1CCN(CC3COC3)CC1)O2 (stereo not drawn) [Compound 38, 7-chloro-2,4-dimethyl-N-((6-methyl-4-(methylthio)-2-oxo-1,2-dihydropyridin-3-yl)methyl)-2-(1-(oxetan-3-ylmethyl)piperidin-4-yl)benzo[d][1,3]dioxole-5-carboxamide] | 

SMILES | IC50 (EZH2) | IC50 (SU-DHL-6 cells; Homo sapiens, SU-DHL-6, 336 h) | further results
CSc1cc(C)[nH]c(=O)c1CNC(=O)c1cc(Cl)c2c(c1C)OC(C)([C@H]1CC[C@@H](N3CC(N4CCCC4)C3)CC1)O2 (single isomer, unassigned) [Compound 43, isomer 1, 7-chloro-2,4-dimethyl-N-((6-methyl-4-(methylthio)-2-oxo-1,2-dihydropyridin-3-yl)methyl)-2-(4-(3-(pyrrolidin-1-yl)azetidin-1-yl)cyclohexyl)benzo[d][1,3]dioxole-5-carboxamide] | 0.49 nM |  | IC50 (SU-DHL-6 cells; Homo sapiens, 336 h): 59.3 nM
CSc1cc(C)[nH]c(=O)c1CNC(=O)c1cc(Cl)c2c(c1C)OC(C)([C@H]1CC[C@@H](N3CC[Si](C)(C)CC3)CC1)O2 (single isomer, unassigned) [Compound 49, isomer 2, 7-chloro-2-(4-(4,4-dimethyl-1,4-azasilinan-1-yl)cyclohexyl)-2,4-dimethyl-N-((6-methyl-4-(methylthio)-2-oxo-1,2-dihydropyridin-3-yl)methyl)benzo[d][1,3]dioxole-5-carboxamide] | 0.32 nM | 38.9 nM | 

From US20230365541A1, “INHIBITOR OF ENHANCER OF ZESTE HOMOLOGUE 2, AND USE THEREOF” (HAISCO PHARMACEUTICALS PTE. LTD., priority 2020, published 2023)
